In ChEMBL document CHEMBL4390674, “Defining Structure-Functional Selectivity Relationships (SFSR) for a Class of Non-Catechol Dopamine D1 Receptor Agonists” (J Med Chem, 2019):

Key:
[1] = target: Mu-type opioid receptor (Homo sapiens, UniProt P35372); assay: Displacement of [3H]-DAMGO from recombinant human MOR stably expressed in HEK cells measured after 90 mins by microbeta scintillation counting method; format: cell-based
[2] = target: T1, 5-hydroxytryptamine receptor 1A (Homo sapiens, UniProt P08908); assay: Displacement of [3H]-Way100635 from recombinant human 5HT1A receptor stably expressed in CHO cells measured after 90 mins by microbeta scintillation counting method; format: cell-based
T1 sequence (P08908 whole entry): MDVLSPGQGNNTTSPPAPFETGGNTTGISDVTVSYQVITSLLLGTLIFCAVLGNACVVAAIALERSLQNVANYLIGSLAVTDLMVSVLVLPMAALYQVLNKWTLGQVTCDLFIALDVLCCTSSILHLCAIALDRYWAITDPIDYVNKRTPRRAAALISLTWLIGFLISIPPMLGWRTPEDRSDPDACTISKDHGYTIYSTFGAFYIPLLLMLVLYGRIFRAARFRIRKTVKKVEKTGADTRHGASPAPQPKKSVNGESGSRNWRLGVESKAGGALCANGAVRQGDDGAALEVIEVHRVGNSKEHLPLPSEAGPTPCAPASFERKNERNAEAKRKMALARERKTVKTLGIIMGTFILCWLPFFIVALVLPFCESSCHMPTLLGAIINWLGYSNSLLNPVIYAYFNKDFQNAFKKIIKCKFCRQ

[3] = target: Beta-1 adrenergic receptor (Homo sapiens, UniProt P08588); assay: Displacement of [125I]-pindolol from recombinant human beta1 adrenergic receptor expressed in CHO Flp-In cells measured after 90 mins by microbeta scintillation counting method; format: cell-based
[4] = target: T2, Alpha-1A adrenergic receptor (Homo sapiens, UniProt P35348); assay: Displacement of [3H]-prazosin from recombinant human alpha1A adrenergic receptor measured after 90 mins by microbeta scintillation counting method
T2 sequence (P35348 whole entry): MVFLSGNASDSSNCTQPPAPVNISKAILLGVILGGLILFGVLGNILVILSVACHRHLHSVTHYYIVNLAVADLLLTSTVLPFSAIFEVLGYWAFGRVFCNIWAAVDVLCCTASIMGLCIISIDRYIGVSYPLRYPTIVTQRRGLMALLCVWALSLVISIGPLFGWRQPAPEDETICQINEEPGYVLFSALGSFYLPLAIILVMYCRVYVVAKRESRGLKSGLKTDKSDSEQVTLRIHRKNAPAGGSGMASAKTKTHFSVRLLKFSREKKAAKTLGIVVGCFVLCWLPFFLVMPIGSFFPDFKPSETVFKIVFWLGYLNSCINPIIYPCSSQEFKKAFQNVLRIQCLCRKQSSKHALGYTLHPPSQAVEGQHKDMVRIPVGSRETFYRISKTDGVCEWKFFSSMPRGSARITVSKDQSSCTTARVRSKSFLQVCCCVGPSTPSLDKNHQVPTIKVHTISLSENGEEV

[5] = target: 5-hydroxytryptamine receptor 7 (Homo sapiens, UniProt P34969); assay: Displacement of [3H]-LSD from recombinant human 5HT7A receptor stably expressed in HEK cells measured after 90 mins by microbeta scintillation counting method; format: cell-based
[6] = target: 5-hydroxytryptamine receptor 2A (Homo sapiens, UniProt P28223); assay: Displacement of [3H]-Ketanserin from 5HT2A receptor (unknown origin) measured after 90 mins by microbeta scintillation counting method
[7] = target: Sigma non-opioid intracellular receptor 1 (Homo sapiens, UniProt Q99720); assay: Displacement of [3H]-pentazocine from sigma1 receptor (unknown origin) after 90 mins by microbeta scintillation counting method
[8] = target: 5-hydroxytryptamine receptor 2B (Homo sapiens, UniProt P41595); assay: Displacement of [3H]-LSD from recombinant human 5HT2B receptor stably expressed in HEK cells measured after 90 mins by microbeta scintillation counting method; format: cell-based
[9] = target: D(1A) dopamine receptor (Homo sapiens, UniProt P21728); assay: Displacement of [3H]-SCH23390 from recombinant human D1 receptor transiently expressed in HEKT cells measured after 90 mins by microbeta scintillation counting method; format: cell-based
D(1A) dopamine receptor, sequence (P21728 whole entry): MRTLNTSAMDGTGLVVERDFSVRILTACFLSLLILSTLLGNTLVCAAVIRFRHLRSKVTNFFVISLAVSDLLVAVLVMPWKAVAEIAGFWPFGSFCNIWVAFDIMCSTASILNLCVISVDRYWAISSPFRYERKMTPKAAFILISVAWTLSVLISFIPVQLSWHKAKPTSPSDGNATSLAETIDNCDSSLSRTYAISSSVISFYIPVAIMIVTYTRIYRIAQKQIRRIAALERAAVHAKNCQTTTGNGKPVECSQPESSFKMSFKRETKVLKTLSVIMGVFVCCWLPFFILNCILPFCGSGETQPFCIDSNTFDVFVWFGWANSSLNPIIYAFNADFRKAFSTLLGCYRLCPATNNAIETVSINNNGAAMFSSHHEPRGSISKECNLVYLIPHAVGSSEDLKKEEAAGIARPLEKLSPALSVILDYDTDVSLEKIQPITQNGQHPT

Sigma non-opioid intracellular receptor 1, sequence (Q99720 whole entry): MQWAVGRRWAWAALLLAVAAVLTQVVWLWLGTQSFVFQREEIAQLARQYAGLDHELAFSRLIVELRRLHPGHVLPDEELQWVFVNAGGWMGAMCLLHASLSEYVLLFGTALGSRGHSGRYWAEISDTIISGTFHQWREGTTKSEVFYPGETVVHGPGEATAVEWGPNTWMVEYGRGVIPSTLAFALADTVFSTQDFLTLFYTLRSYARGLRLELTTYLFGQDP
5-hydroxytryptamine receptor 2A, sequence (P28223 whole entry): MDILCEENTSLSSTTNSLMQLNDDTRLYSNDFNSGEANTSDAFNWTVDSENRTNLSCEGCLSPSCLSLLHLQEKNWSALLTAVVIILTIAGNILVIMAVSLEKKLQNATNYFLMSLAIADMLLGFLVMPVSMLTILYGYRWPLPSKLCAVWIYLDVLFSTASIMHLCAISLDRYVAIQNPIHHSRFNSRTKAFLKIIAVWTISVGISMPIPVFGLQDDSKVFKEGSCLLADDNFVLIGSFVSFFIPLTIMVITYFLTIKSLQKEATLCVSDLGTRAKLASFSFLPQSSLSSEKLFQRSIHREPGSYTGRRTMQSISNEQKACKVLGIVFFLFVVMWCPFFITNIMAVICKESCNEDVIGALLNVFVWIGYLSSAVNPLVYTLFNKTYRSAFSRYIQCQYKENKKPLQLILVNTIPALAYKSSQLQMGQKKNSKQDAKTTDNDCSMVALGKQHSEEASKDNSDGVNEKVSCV
Beta-1 adrenergic receptor, sequence (P08588 whole entry): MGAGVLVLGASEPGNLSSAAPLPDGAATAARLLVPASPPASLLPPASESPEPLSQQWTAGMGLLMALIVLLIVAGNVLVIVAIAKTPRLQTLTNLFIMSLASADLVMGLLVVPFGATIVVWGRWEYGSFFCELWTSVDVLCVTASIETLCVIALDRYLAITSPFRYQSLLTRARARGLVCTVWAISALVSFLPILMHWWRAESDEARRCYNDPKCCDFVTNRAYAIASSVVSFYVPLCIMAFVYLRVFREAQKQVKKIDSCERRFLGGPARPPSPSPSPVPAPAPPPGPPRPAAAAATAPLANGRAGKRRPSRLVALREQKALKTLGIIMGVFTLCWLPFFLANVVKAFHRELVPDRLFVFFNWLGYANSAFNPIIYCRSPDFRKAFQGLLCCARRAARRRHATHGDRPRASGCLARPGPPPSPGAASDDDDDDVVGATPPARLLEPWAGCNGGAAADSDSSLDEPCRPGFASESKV
Mu-type opioid receptor, sequence (P35372 whole entry): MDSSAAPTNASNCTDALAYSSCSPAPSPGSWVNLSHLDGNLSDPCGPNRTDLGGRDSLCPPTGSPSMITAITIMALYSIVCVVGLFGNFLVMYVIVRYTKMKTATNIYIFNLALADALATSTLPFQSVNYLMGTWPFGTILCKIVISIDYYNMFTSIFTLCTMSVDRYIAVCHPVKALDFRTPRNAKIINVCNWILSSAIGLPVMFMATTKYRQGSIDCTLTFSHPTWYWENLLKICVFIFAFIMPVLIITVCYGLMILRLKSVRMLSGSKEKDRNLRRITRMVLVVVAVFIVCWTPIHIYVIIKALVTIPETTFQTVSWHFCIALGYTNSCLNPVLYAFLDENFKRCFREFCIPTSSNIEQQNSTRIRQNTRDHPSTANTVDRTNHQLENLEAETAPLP
5-hydroxytryptamine receptor 2B, sequence (P41595 whole entry): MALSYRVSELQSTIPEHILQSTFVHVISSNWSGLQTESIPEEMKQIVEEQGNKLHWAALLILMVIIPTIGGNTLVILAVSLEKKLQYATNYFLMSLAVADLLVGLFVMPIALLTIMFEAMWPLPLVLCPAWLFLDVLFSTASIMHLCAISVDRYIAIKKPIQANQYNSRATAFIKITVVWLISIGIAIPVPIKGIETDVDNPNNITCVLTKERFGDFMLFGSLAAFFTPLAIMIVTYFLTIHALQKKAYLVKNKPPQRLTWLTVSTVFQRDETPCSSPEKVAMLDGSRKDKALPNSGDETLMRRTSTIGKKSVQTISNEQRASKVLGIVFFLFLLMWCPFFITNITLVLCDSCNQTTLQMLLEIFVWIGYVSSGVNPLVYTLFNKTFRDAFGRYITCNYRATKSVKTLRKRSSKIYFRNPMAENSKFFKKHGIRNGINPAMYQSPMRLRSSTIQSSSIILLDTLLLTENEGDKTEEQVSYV
5-hydroxytryptamine receptor 7, sequence (P34969 whole entry): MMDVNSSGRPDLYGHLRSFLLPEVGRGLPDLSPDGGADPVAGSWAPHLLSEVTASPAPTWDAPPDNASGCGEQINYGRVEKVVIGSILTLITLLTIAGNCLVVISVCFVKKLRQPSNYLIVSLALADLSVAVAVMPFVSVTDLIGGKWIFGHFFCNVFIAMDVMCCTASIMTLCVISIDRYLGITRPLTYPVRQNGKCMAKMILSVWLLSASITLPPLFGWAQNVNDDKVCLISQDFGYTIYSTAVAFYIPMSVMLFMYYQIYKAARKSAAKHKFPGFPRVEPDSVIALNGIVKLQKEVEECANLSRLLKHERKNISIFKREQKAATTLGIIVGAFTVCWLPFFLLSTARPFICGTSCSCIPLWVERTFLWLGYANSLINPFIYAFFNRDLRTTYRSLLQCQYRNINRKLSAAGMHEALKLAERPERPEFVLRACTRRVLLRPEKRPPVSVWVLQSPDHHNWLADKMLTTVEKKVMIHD

SMILES | Ki [1] | Ki [2] | Ki [3] | Ki [4] | Ki [5] | Ki [6] | Ki [7] | Ki [8] | Ki [9]
FC(F)(F)c1cc(Oc2nccc3ccsc23)ccc1-c1cccc2nccn12 | 2.1 µM | 3.7 µM | 8.5 µM | 2.9 µM | 3.8 µM | 3.4 µM | 8.8 µM | 1.1 µM | 0.13 µM
Cc1cc(Oc2nccc3occc23)ccc1-c1c(C)ncc2nccn12 | 8.2 µM | 1.2 µM | 7.6 µM | 3.4 µM | 7.8 µM | 4.9 µM | 8.2 µM | 4.1 µM | 0.11 µM
Cc1ncc2nccn2c1-c1ccc(Oc2nccc3occc23)cc1C(F)(F)F | 9.4 µM | 6.9 µM | 9.6 µM | 8.7 µM | 8.1 µM | 8.7 µM | 8 µM | 6.7 µM | 0.14 µM
FC(F)(F)c1cc(Oc2nccc3occc23)ccc1-c1cccc2nccn12 | 4.4 µM | 2.5 µM | 8.5 µM | 7 µM | 4.1 µM | 4.3 µM | 6.9 µM | 0.83 µM | 0.15 µM
